Measurements: patent US10947242B2, “[1,2,4]triazolo[1,5and#8208;A]pyrimidine compounds as PDE2 inhibitors” (Janssen Pharmaceutica NV, priority 2016, dated 2021)
Like-named read-outs stand apart in the source and are kept apart here.

How the values were obtained:
Format in all cases: biochemical
[1] = molecular target: T1, Human recombinant PDE2A (hPDE2A) (Homo sapiens, UniProt O00408); test: In vitro assay PDE2A (SPA, 3H-cGMP hydrolysis); details: for Emax: read-out: hPDE2A Emax
T1 construct: His tag (inferred from metal chelate purification); made in house; host or cells: Sf9 insect cells (baculovirus)

[2] = molecular target: T2, Human recombinant PDE3A (hPDE3A) (Homo sapiens, UniProt Q14432); test: In vitro assay PDE3A (SPA, 3H-cAMP hydrolysis); details: for IC50: hPDE3B pIC50, read-out: pIC50 (converted); for Emax: read-out: hPDE3B Emax, read-out: Emax;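 as to all read-outs here: the method names PDE3A and the table heading PDE3B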
T2 construct: purchased Scottish Biomedical; host or cells: Sf9 insect cells
In short: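 Radiometric SPA measuring [3H]-cAMP hydrolysis (0.4 μM cAMP, 2.4 μCi/ml) over 60 min at room temperature, in Tris pH 7.8 buffer with MgCl2 and EGTA, 1% DMSO. Enzyme: recombinant human brain PDE3A expressed in Sf9 cells, used as partially purified lysate. Counts compared with enzyme-free blanks and vehicle controls.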

[3] = molecular target: T3, Human recombinant PDE10A (hPDE10A) (Homo sapiens, UniProt Q9Y233); test: In vitro assay PDE10A, human clone (SPA, 3H-cAMP hydrolysis)
T3 construct: His tag (inferred from metal chelate purification); made in house; host or cells: Sf9 insect cells (baculovirus)
In short: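 Hydrolysis of 3H-cAMP (60 nM cAMP, 0.008 μCi tracer) proceeded for 60 min at room temperature, with the product detected by SPA bead scintillation counting. The enzyme was hPDE10A from baculovirus-infected Sf9 cells in Tris pH 7.8 buffer with MgCl2 and EGTA, and compounds were at 1% DMSO final. Blanks lacked enzyme.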

[4] = human recombinant PDE2A, 10 μM cGMP substrate, read-out: hPDE2A pIC50 (converted)
[5] = read-out: hPDE2A pIC50 (converted)
[6] = human clone (h), default, read-out: hPDE10A2 Emax
[7] = human clone (h), default, read-out: hPDE10A2 pIC50 (converted)
[8] = human clone by default (no (r) mark), read-out: hPDE10A2 or rPDE10A2 Emax
[9] = human clone by default (no (r) mark), read-out: hPDE10A2 or rPDE10A2 pIC50 (converted)
[10] = hPDE2A pIC50, human recombinant PDE2A, 10 μM cGMP substrate

T3 sequence (Q9Y233 267-1055): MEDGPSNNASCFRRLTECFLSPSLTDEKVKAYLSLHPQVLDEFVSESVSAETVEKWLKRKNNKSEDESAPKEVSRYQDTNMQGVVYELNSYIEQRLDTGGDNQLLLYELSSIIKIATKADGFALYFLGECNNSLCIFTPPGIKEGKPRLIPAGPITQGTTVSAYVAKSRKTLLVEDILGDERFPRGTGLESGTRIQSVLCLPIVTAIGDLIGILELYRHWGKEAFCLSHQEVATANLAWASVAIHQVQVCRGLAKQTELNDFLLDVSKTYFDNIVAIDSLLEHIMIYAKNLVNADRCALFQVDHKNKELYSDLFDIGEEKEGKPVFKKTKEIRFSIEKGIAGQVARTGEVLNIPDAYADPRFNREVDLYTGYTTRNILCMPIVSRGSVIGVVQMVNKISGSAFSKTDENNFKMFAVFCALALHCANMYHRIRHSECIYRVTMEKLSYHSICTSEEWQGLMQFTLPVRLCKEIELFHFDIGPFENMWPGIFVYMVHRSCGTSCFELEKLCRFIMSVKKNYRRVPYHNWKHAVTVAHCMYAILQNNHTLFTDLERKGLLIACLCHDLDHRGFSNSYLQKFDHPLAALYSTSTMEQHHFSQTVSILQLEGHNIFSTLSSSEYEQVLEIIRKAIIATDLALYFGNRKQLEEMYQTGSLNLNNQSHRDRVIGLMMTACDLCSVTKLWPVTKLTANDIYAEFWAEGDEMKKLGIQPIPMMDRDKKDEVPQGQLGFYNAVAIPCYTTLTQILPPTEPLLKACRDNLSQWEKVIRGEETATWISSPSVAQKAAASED
T1 sequence (O00408 whole entry): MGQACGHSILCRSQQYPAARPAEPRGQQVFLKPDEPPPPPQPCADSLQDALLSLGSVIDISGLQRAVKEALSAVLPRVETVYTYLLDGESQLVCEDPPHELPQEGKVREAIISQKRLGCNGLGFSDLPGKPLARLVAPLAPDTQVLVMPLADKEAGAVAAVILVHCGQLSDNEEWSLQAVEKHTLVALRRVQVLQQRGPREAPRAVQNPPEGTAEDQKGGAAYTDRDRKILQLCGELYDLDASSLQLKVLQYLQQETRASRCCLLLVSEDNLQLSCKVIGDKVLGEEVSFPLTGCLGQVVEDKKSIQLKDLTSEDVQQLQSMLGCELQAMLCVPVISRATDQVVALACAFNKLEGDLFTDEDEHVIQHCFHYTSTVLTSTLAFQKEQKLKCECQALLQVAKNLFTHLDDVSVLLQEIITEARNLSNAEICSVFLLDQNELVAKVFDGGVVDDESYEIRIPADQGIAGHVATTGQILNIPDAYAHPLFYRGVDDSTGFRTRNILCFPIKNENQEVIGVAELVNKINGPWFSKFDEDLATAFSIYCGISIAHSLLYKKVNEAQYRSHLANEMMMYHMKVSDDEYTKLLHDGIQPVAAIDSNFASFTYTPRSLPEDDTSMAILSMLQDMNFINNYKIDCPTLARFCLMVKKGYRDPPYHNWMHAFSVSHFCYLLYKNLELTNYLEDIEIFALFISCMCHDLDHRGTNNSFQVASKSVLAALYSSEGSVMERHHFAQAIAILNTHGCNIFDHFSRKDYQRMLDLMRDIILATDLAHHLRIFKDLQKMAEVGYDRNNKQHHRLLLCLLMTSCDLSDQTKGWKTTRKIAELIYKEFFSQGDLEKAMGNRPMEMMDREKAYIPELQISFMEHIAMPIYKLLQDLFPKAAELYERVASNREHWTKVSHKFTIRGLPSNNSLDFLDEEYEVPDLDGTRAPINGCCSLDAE
T2 sequence (Q14432 whole entry): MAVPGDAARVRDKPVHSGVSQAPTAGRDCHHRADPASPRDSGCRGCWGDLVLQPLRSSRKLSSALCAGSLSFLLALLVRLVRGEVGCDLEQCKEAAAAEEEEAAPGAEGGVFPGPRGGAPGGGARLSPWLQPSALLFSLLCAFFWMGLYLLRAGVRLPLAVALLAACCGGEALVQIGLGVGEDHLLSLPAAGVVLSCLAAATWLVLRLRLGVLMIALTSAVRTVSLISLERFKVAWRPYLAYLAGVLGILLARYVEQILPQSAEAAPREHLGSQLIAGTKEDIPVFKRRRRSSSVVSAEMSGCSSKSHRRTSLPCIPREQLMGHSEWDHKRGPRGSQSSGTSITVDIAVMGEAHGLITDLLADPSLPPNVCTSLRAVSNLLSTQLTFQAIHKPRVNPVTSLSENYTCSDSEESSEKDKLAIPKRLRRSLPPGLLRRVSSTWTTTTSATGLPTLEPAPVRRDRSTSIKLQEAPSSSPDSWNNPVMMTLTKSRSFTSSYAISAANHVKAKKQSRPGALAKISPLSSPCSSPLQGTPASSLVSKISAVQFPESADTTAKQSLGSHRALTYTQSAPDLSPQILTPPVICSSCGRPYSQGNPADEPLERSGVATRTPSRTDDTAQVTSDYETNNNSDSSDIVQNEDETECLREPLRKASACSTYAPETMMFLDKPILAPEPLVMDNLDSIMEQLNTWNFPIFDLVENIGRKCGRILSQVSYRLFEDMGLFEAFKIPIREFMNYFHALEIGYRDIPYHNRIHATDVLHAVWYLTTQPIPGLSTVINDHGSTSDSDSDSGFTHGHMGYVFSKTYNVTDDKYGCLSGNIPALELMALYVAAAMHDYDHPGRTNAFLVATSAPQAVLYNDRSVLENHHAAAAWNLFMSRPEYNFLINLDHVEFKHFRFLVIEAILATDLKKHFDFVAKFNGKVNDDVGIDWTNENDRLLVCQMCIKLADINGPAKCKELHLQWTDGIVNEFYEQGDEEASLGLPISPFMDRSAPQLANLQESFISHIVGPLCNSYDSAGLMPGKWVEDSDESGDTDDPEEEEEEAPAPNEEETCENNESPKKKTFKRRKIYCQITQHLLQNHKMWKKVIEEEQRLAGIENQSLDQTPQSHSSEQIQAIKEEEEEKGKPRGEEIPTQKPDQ

Row | Structure (SMILES) | IC50 [1, 4] | Emax ([1]; human recombinant PDE2A) | Emax [1] | IC50 [1, 5] | IC50 [2] | Emax [2] | Emax [3, 6] | IC50 [3, 7] | Emax [3, 8] | IC50 [3, 9] | IC50 ([1]; hPDE2A pIC50) | IC50 [1, 10]
1 | C[C@@H]1CCN(C(=O)c2cnc(Br)s2)C[C@H]1c1cc(C(F)F)nc2ncnn12 [Compound 182] | 25.1 nM | 100% | 100% | 25.1 nM | > 10000 nM | 44% | 95% | 417 nM |  |  |  | 
2 | C[C@@H]1CCN(C(=O)c2cccc3ocnc23)C[C@H]1c1cc(C(F)F)nc2ncnn12 [Compound 183] | 26.3 nM | 99% | 99% | 26.3 nM | > 10000 nM | 36% | 79% | 2290 nM |  |  |  | 
3 | COc1nc(C)c(C(=O)N2CC[C@@H](C)[C@H](c3cc(C(F)F)nc4ncnn34)C2)s1 [Compound 185] |  |  | 98% | 21.9 nM | 3310 nM | 79% | 87% | 1200 nM |  |  |  | 
4 | Cc1nn(C)cc1C(=O)N1CC[C@@H](C)[C@H](c2cc(C(F)F)nc3ncnn23)C1 [Compound 198] | 5.62 nM | 98% | 98% | 5.62 nM | > 10000 nM | 35% | 91% | 417 nM |  |  |  | 
5 | Cc1cc([C@H]2CN(C(=O)c3ccc4nccn4c3)CC[C@@H]2C)n2ncnc2n1 [Compound 216] | 437 nM | 98% | 98% | 437 nM | > 10000 nM | 26% | 67% | 4470 nM | 67% | 4470 nM |  | 
6 | Cc1cc([C@H]2CN(C(=O)c3cc(C)c(F)c(C)c3)CC[C@@H]2C)n2ncnc2n1 [Compound 217] |  |  | 99% |  | > 10000 nM | 37% | 72% | 4790 nM | 72% | 4790 nM | 562 nM | 562 nM
7 | Cc1cc([C@H]2CN(C(=O)c3cc(C)c(Cl)c(C)c3)CC[C@@H]2C)n2ncnc2n1 [Compound 218] |  |  | 100% |  | > 10000 nM | 51% | 85% | 2240 nM | 85% | 2240 nM | 204 nM | 204 nM
8 | Cc1ccc(F)c(C(=O)N2CC[C@@H](C)[C@@H](c3cc(C(F)F)nc4ncnn34)C2)n1 [Compound 222] | 282 nM | 98% | 98% | 282 nM | > 10000 nM | 13% | 59% | 6760 nM | 59% | 6760 nM |  | 
9 | C[C@@H]1CCN(C(=O)c2ccc(C3CC3)c(C3CC3)c2)C[C@H]1c1cc(C(F)F)nc2ncnn12 [Compound 226] | 0.871 nM | 100% | 100% | 0.871 nM | 129 nM | 100% | 100% | 81.3 nM | 100% | 81.3 nM |  | 
10 | Cc1cccnc1C(=O)N1CC[C@@H](C)[C@H](c2cc(C(F)F)nc3ncnn23)C1 [Compound 229] | 562 nM | 95% | 95% | 562 nM | > 10000 nM | 18% | 33% | > 10000 nM | 33% | > 10000 nM |  | 
11 | Cc1cc([C@@H]2CC[C@@H]3CC[C@H]2N3C(=O)c2ccc3ncsc3c2)n2ncnc2n1 [Compound 230] | 1020 nM | 93% | 93% | 1020 nM | > 10000 nM | 40% | 65% | 5370 nM | 65% | 5370 nM |  | 
12 | Cc1cnc(C(=O)N2CC[C@@H](C)[C@H](c3cc(C(F)F)nc4ncnn34)C2)cn1 [Compound 232] | 214 nM | 99% | 99% | 214 nM | > 10000 nM | 31% | 48% | > 10000 nM | 48% | > 10000 nM |  | 
13 | C[C@@H]1CCN(C(=O)c2ncccc2N)C[C@H]1c1cc(C(F)F)nc2ncnn12 [Compound 233] | 575 nM | 94% | 94% | 575 nM | > 10000 nM | 10% | 26% | > 10000 nM | 26% | > 10000 nM |  | 
14 | C[C@@H]1CCN(C(=O)c2ccc(C#N)cn2)C[C@H]1c1cc(C(F)F)nc2ncnn12 [Compound 234] | 513 nM | 96% | 96% | 513 nM | > 10000 nM | 22% | 59% | 8710 nM | 59% | 8710 nM |  | 
15 | C[C@@H]1CCN(C(=O)c2ccncc2Cl)C[C@H]1c1cc(C(F)F)nc2ncnn12 [Compound 235] | 123 nM | 98% | 98% | 123 nM | > 10000 nM | 32% | 67% | 5500 nM | 67% | 5500 nM |  | 
16 | C[C@@H]1CCN(C(=O)c2ccc(O)nn2)C[C@H]1c1cc(C(F)F)nc2ncnn12 [Compound 236] | 209 nM | 100% | 100% | 209 nM | > 10000 nM | 18% | 58% | 7760 nM | 58% | 7760 nM |  | 
17 | C[C@@H]1CCN(C(=O)c2nccnc2Cl)C[C@H]1c1cc(C(F)F)nc2ncnn12 [Compound 237] | 186 nM | 97% | 97% | 186 nM | > 10000 nM | 20% | 51% | 8130 nM | 51% | 8130 nM |  | 
18 | C[C@@H]1CCN(C(=O)c2ncc(C#N)cc2Cl)C[C@H]1c1cc(C(F)F)nc2ncnn12 [Compound 238] | 380 nM | 94% | 94% | 380 nM | > 10000 nM | 35% | 48% |  | 48% |  |  | 
19 | C[C@@H]1CCN(C(=O)c2ccncc2C(F)(F)F)C[C@H]1c1cc(C(F)F)nc2ncnn12 [Compound 239] | 191 nM | 96% | 96% | 191 nM | > 10000 nM | 16% | 43% | > 10000 nM | 43% | > 10000 nM |  | 
20 | C[C@@H]1CCN(C(=O)c2ncc[nH]2)C[C@H]1c1cc(C(F)F)nc2ncnn12 [Compound 240] | 1550 nM | 90% | 90% | 1550 nM | > 10000 nM | 9% | 51% | 9120 nM | 51% | 9120 nM |  | 
21 | C[C@@H]1CCN(C(=O)c2cccc(OC(F)(F)F)c2F)C[C@H]1c1cc(C(F)F)nc2ncnn12 [Compound 241] | 20.9 nM | 97% | 97% | 20.9 nM | 1740 nM | 88% | 94% | 269 nM | 94% | 269 nM |  | 
22 | C[C@@H]1CCN(C(=O)c2ccc(C(F)(F)F)nc2Cl)C[C@H]1c1cc(C(F)F)nc2ncnn12 [Compound 242] | 135 nM | 97% | 97% | 135 nM | 6170 nM | 67% | 56% | 8130 nM | 56% | 8130 nM |  | 
23 | C[C@@H]1CCN(C(=O)c2ccno2)C[C@H]1c1cc(C(F)F)nc2ncnn12 [Compound 243] | 132 nM | 99% | 99% | 132 nM | > 10000 nM | 13% | 70% | 3630 nM | 70% | 3630 nM |  | 
24 | Cc1ncc(C(=O)N2CC[C@@H](C)[C@H](c3cc(C(F)F)nc4ncnn34)C2)cn1 [Compound 244] |  |  | 92% | 676 nM | > 10000 nM | 12% | 54% | 9330 nM | 54% | 9330 nM |  | 
25 | C[C@@H]1CCN(C(=O)c2ccc(F)c(F)c2F)C[C@H]1c1cc(C(F)F)nc2ncnn12 [Compound 245] |  |  | 99% | 123 nM | 5890 nM | 62% | 79% | 2190 nM | 79% | 2190 nM |  | 
26 | CCCOc1cccnc1C(=O)N1CC[C@@H](C)[C@H](c2cc(C(F)F)nc3ncnn23)C1 [Compound 246] |  |  | 98% | 126 nM | > 10000 nM | 25% | 44% | > 10000 nM | 44% | > 10000 nM |  | 
